Measured values published in article PMC8298264, “Function of cofactor Akirin2 in the regulation of gene expression in model human neutrophil-like HL60 cells” (Bioscience Reports, 2021).

System: human HL60 cells
Experiment: SWATH-MS proteomics, differential protein representation, akirin2 KO vs WT HL60 cells
Assay type: cell-based
Protocol: Total proteins were extracted from WT and akirin2 KO HL60 cells using the AllPrep DNA/RNA/Protein Mini Kit (Qiagen) and protein concentration was determined using the BCA Protein Assay with BSA (Sigma–Aldrich) as standard. Protein extracts (150 µg per sample, n=3 biological replicates) from each WT and KO cells were trypsin digested using the FASP Protein Digestion Kit (Expedeon Ltd., Abcam, Cambridge, U.K.) and sequencing grade trypsin (Promega, Madison, WI, U.S.A.) following manufacturer’s recommendations. The resulting peptides were finally desalted on to OMIX Pipette tips C18 (Agilent Technologies, Santa Clara, CA, U.S.A.), dried down and stored at −20 °C until mass spectrometry analysis. […] Three micrograms of each protein digest from the three biological replicates of WT and akirin2 KO HL60 cells were used for the generation of the reference spectral ion library as part of the SWATH-MS analysis.
Peptides were eluted in a 120-min gradient from 5 to 30% solvent B in solvent A followed by 15-min gradient from 30 to 60% solvent B in solvent A (solvent A: 0.1% formic acid in water, solvent B: 0.1% formic acid in acetonitrile) and directly injected into the mass spectrometer for analysis. For IDA experiments, the mass spectrometer was set to scanning full spectra (350–1400 m/z) using 250 ms accumulation time per spectrum, followed by up to 50 MS/MS scans (100–1500 m/z). Candidate ions with a charge state between +2 and +5 counts per second above a minimum threshold of 100 were isolated for fragmentation. One MS/MS spectrum was collected for 100 ms, before adding those precursor ions to the exclusion list for 15 s (mass spectrometer operated by Analyst TF 1.6, AB Sciex). Dynamic background subtraction was turned off. MS/MS analyses were recorded in high-sensitivity mode with rolling collision energy on and a collision energy spread of 5. For SWATH quantitative analysis, six independent samples (three replicates from WT and akirin2 KO HL60 cells, 5 µg each) were subjected to the cyclic DIA of mass spectra using the SWATH variable windows calculator (V 1.0, AB Sciex) and the SWATH acquisition method editor (AB Sciex), similar to established methods. […] For these experiments, a 50-ms survey scan (350–1400 m/z) was acquired at the beginning of each cycle, and SWATH–MS/MS spectra were collected from 100–1500 m/z for 70 ms at high-sensitivity mode, resulting in a cycle time of 3.6 s. Collision energy for each window was determined according to the calculation for a charge +2 ion-centered upon the window with a collision energy spread of 15. To create a spectral library of all the detectable peptides in the samples, the IDA MS raw files were combined and subjected to database search in unison using ProteinPilot software v. 5.0.1 (AB Sciex) with the Paragon algorithm. […] The detected protein threshold was set at 0.05. An independent false discovery rate (FDR) analysis, using the target–decoy approach provided by Protein Pilot (AB Sciex; https://sciex.com/products/software/proteinpilot-software), was used to assess the quality of identifications. Positive identifications were considered when identified proteins reached 1% of global FDR. […] Global normalization was performed according to the Total Area Sums (TAS) of all detected proteins in the samples. […] Heatmaps were prepared using the Heatmapper (http://www.heatmapper.ca/expression/) with average linkage and Euclidean distance measurement method.

[1] = Over-represented in KO, KO vs WT HL60 cells
[2] = SWATH-MS, akirin2 KO vs WT HL60 cells, sheet "Under-represented in KO"
[3] = SWATH-MS, akirin2 KO vs WT HL60 cells, under-represented in KO
[4] = KO vs WT HL60 cells, sheet "Under-represented in KO"
[5] = akirin2 KO vs WT HL60 cells, sheet "Under-represented in KO"
[6] = akirin2 KO vs WT HL60 cells, sheet "Over-represented in KO"
[7] = KO vs WT, akirin2 KO vs WT HL60 cells, sheet "Under-represented in KO"
[8] = SWATH-MS, akirin2 KO vs WT HL60 cells, over-represented in KO

## sp¦P23284¦PPIB_HUMAN
[1]
  Fold Change: 1.275
  Log (Fold Change): 0.1054

## sp¦P25786¦PSA1_HUMAN
[1]
  Fold Change: 1.271
  Log (Fold Change): 0.1042

## sp¦P28070¦PSB4_HUMAN
[2]
  Fold Change: 0.7608
  Log (Fold Change): -0.1188

## sp¦P29350¦PTN6_HUMAN
[3]
  Fold Change: 0.7017
  Log (Fold Change): -0.1538

## sp¦P31040¦SDHA_HUMAN
[4]
  Fold Change: 0.5299
  Log (Fold Change): -0.2758

## sp¦P31689¦DNJA1_HUMAN
[1]
  Fold Change: 1.309
  Log (Fold Change): 0.117

## sp¦P35250¦RFC2_HUMAN
[2]
  Fold Change: 0.7882
  Log (Fold Change): -0.1034

## sp¦P35579¦MYH9_HUMAN
[5]
  Fold Change: 0.3518
  Log (Fold Change): -0.4538

## sp¦P36404¦ARL2_HUMAN
[3]
  Fold Change: 0.6935
  Log (Fold Change): -0.1589

## sp¦P38646¦GRP75_HUMAN
[3]
  Fold Change: 0.7142
  Log (Fold Change): -0.1462

## sp¦P40937¦RFC5_HUMAN
[4]
  Fold Change: 0.4492
  Log (Fold Change): -0.3475

## sp¦P46013¦KI67_HUMAN
[6]
  Fold Change: 1.204
  Log (Fold Change): 0.08052

## sp¦P49137¦MAPK2_HUMAN
[1]
  Fold Change: 1.268
  Log (Fold Change): 0.1031

## sp¦P53007¦TXTP_HUMAN
[5]
  Fold Change: 0.3964
  Log (Fold Change): -0.4018

## sp¦P54709¦AT1B3_HUMAN
[3]
  Fold Change: 0.7448
  Log (Fold Change): -0.128

## sp¦P55072¦TERA_HUMAN
[6]
  Fold Change: 1.115
  Log (Fold Change): 0.04741

## sp¦P55809¦SCOT1_HUMAN
[5]
  Fold Change: 0.6768
  Log (Fold Change): -0.1696

## sp¦P56545¦CTBP2_HUMAN
[5]
  Fold Change: 0.655
  Log (Fold Change): -0.1838

## sp¦P60953¦CDC42_HUMAN
[3]
  Fold Change: 0.7034
  Log (Fold Change): -0.1528

## sp¦P61604¦CH10_HUMAN
[3]
  Fold Change: 0.7263
  Log (Fold Change): -0.1389

## sp¦P78527¦PRKDC_HUMAN
[5]
  Fold Change: 0.4323
  Log (Fold Change): -0.3642

## sp¦P84077¦ARF1_HUMAN
[5]
  Fold Change: 0.682
  Log (Fold Change): -0.1662

## sp¦Q5T4S7¦UBR4_HUMAN
[5]
  Fold Change: 0.241
  Log (Fold Change): -0.6179

## sp¦Q6P2Q9¦PRP8_HUMAN
[3]
  Fold Change: 0.7423
  Log (Fold Change): -0.1294

## sp¦Q7Z6Z7¦HUWE1_HUMAN
[4]
  Fold Change: 0.5255
  Log (Fold Change): -0.2794

## sp¦Q8NE71¦ABCF1_HUMAN
[7]
  Fold Change: 0.6253
  Log (Fold Change): -0.2039

## sp¦Q8NF50¦DOCK8_HUMAN
[5]
  Fold Change: 0.4042
  Log (Fold Change): -0.3934

## sp¦Q9BRF8¦CPPED_HUMAN
[7]
  Fold Change: 0.571
  Log (Fold Change): -0.2434

## sp¦Q9H0U4¦RAB1B_HUMAN
[3]
  Fold Change: 0.704
  Log (Fold Change): -0.1524

## sp¦Q9NR31¦SAR1A_HUMAN
[5]
  Fold Change: 0.4316
  Log (Fold Change): -0.3649

## sp¦Q9P287¦BCCIP_HUMAN
[1]
  Fold Change: 1.299
  Log (Fold Change): 0.1134

## sp¦Q9UNS2¦CSN3_HUMAN
[3]
  Fold Change: 0.6926
  Log (Fold Change): -0.1595

## sp¦Q9Y4W6¦AFG32_HUMAN
[7]
  Fold Change: 0.6186
  Log (Fold Change): -0.2086

## sp¦Q9Y5B9¦SP16H_HUMAN
[3]
  Fold Change: 0.7335
  Log (Fold Change): -0.1346

## sp¦Q9Y266¦NUDC_HUMAN
[1]
  Fold Change: 1.364
  Log (Fold Change): 0.135

## sp¦Q9Y490¦TLN1_HUMAN
[1]
  Fold Change: 1.355
  Log (Fold Change): 0.1319

## sp¦Q86UX7¦URP2_HUMAN
[2]
  Fold Change: 0.7476
  Log (Fold Change): -0.1263

## sp¦Q96A72¦MGN2_HUMAN
[5]
  Fold Change: 0.6271
  Log (Fold Change): -0.2026

## sp¦Q01469¦FABP5_HUMAN
[8]
  Fold Change: 1.478
  Log (Fold Change): 0.1698
